From PubChem BioAssay AID493002 (Sanford-Burnham Center for Chemical Genomics, 2010)
Active and inactive are the calls of the source. No rule for the calls is given here.

System: S. cerevisiae tim23-1 mutant growth, luminescence
Assay: tim23-1 mutant yeast growth inhibitors, dose response, luminescence, uHTS hits (AID 493002);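 also: yeast grown roughly 22 hours at 25 °C before the luminescence read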

Row | Structure (SMILES) | IC50
1 | Brc1ccc(OCc2nnnn2-c2ccccc2)cc1 | 11.3 µM
2 | Nc1nc(-c2ccc(-c3ccccc3)cc2)cs1 | 14.9 µM
3 | CCOC(=O)c1cnc(-n2nc(C)cc2C)nc1NCCc1ccccc1 | 9.75 µM
4 | Cc1ccc(C(=O)NC(=S)NCc2ccccc2)cc1 | 12.1 µM
5 | O=CN(/C=C1\Sc2ccccc2C1=O)Cc1ccccc1 | 7.02 µM
6 | O=C1OC(c2ccccc2)=N/C1=C\C=C\c1ccco1 | 5.33 µM
7 | O=C(N/N=C/c1ccc(Br)s1)c1cccs1 | 9.05 µM
8 | COc1ccc(/C=N/NC(=O)c2cccs2)c2ccccc12 | 13.7 µM
9 | CCSc1ncc(/C=N/Nc2ccc(Cl)cc2)n1C | 5.9 µM
10 | O=C(CSc1nnnn1Cc1ccccc1)c1ccc(F)cc1 | 20 µM
11 | CCN(CC)c1ccc(/C=C2/C(=O)ON=C2C)cc1 | 14.6 µM
12 | CC(=O)Nc1ncnc2c1c(-c1ccc(Cl)cc1)nn2C(C)(C)C | 10 µM
13 | O=C(CSc1ccccc1)N/N=C/c1ccccc1O | 27.5 µM
14 | COc1ccc(N2CCC(CNC(=S)Nc3ccc(C)cc3C)C2)cc1 (centres undefined) | 7.54 µM
15 | COc1ccc(/C=C/C(=O)Nc2ccc3c(c2)CCC3)cc1OC | 8.81 µM
16 | Nc1cc([N+](=O)[O-])cc2oc(-c3ccccc3)cc12 | 13.1 µM
17 | CC1(C)CC(=O)C=C(c2cccc(Cl)c2O)C1 | 8.1 µM
18 | COCCNC(=O)/C(C#N)=C/c1ccc(OCc2ccccc2)cc1 | 9.3 µM
19 | COC(=O)c1ccc(C(=O)OC)c(NC(=O)CSc2cccc[n+]2[O-])c1 | 4.4 µM
20 | Cc1cc(Nc2ccccc2)nn1C(=O)c1ccccc1 | 12 µM
21 | O=c1c2ccccc2nc2c3ccccc3cnn12 | 15 µM
22 | CCCCSC1=C(C#N)C(c2ccccc2C)CC(=O)N1 (centres undefined) | 13.7 µM

Row | Structure (SMILES) | IC50
23 | O=C(N/N=C/C(Br)=C/c1ccccc1)c1cccs1 | 6.9 µM
24 | Oc1ccccc1-c1cc(-c2cccc(F)c2)n[nH]1 | 13.2 µM
25 | CC1CCc2c(sc3nc(C(C)(C)C)nc(N4CCN(C(=O)CCl)CC4)c23)C1 (centres undefined) | 8.61 µM
26 | N#C/C(N)=C(/C#N)N=Cc1cccc(Cl)c1 | 8.99 µM
27 | CCOC(=O)C1=C(CSc2nc(CC)c(C)cc2C#N)OC(N)=C(C#N)C1c1ccc(OC)cc1 (centres undefined) | 17.8 µM
28 | O=C1NN=C(c2ccc(Cl)cc2)CC1c1cccc(Br)c1 (centres undefined) | > 100 µM (inactive)
29 | COc1ccc2c(c1)OC[C@H]1[C@H]2N2C(=O)c3cc(C)ccc3NC(=O)[C@@]2(C)[C@H]1c1ccccc1 | 13.1 µM
30 | CN(C)c1c2ccccc2nc2c(F)c(F)c(F)c(F)c12 | 16.6 µM
31 | Cn1c(C=O)c(C#Cc2ccccc2)c2ccccc21 | 6.21 µM
32 | CCCOc1cccc(C(=O)N/N=C/c2coc3ccccc3c2=O)c1 | 13.4 µM
33 | O=Cc1ccccc1OCc1ccc2c(c1)OCO2 | 6.59 µM
34 | CN(C)/C=C1/C=C(c2ccccc2)OC1=O | 12 µM
35 | N=c1c2c(-c3ccccc3)c(-c3ccccc3)n(Cc3ccco3)c2ncn1Cc1ccco1 | 9.92 µM
36 | Oc1ccccc1-c1cc(-c2ccc(F)cc2)n[nH]1 | 13.5 µM
37 | N#Cc1c(NC(=O)C2CC2)sc2c1CCCCC2 | 14.6 µM
38 | Cc1ccc(-c2nnc(C)c(N3CCCC3)n2)cc1 | 16.6 µM
39 | O=C(Nc1cccc(NC(=O)c2ccco2)c1)c1cccc(Br)c1 | 13.1 µM
40 | O=C1/C(=C/c2cccs2)COc2ccccc21 | 8.37 µM
41 | O=C1c2cccc3c(Cl)ccc(c23)C(=O)N1O | 9.64 µM
42 | O=c1c(-c2ccc3c(c2)OCCO3)c(C(F)(F)F)oc2cc(O)cc(O)c12 | 12.6 µM
43 | COc1ccc(CCn2c(C(C)C)nc3oc4ccccc4c(=O)c3c2=O)cc1 | 14.2 µM
44 | Cn1c(-c2sc3ccccc3c2Cl)n[nH]c1=S | 7.61 µM

Row | Structure (SMILES) | IC50
45 | Oc1ccc(Oc2ccc(Oc3ccc(O)cc3)cc2)cc1 | 6.42 µM
46 | CC1(C)OC(=O)C(=Cc2ccc[nH]2)C(=O)O1 | 8.73 µM
47 | N#C/C(=C\c1ccc(Cl)cc1)C(=O)Nc1cccnc1 | 5.72 µM
48 | CCC(C)C(=O)Nc1nc2ccc(OC)cc2s1 (centres undefined) | 18.1 µM
49 | N#Cc1c(-c2ccccc2)cc(-c2ccc(O)cc2)nc1N | 5.58 µM
50 | O=C(N/N=C/c1cccs1)c1cc(-c2cccc3ccccc23)n[nH]1 | 28 µM
51 | CC1CCN(c2nnc(N3CCC(C)CC3)c3ccccc23)CC1 | 34.9 µM
52 | NC(N)=N/N=C/c1ccc(OCc2ccccc2Cl)cc1 | 18 µM
53 | CC(C)CCN1C(=O)c2cccc3c(N)ccc(c23)C1=O | 9.07 µM
54 | COC(=O)c1ccc2nc(NC(=O)C3CC3)sc2c1 | 7.12 µM
55 | CCOC(=O)CSc1c(-c2cccs2)[nH]c2ccccc12 | 15.2 µM
56 | CCc1cccc2c(C(=O)CCl)c[nH]c12 | 9.27 µM
57 | Cc1ccc(NC(=S)NC(=O)C2CC2)cc1Cl | 6.85 µM
58 | c1cnc2c(c1)ccc1cccnc12 | 9.59 µM
59 | CCc1ccc2oc(-c3cc(N)ccc3Cl)nc2c1 | 6.18 µM
60 | Clc1nssc1=Nc1nncs1 | 3.05 µM
61 | OCCCNc1cc(-c2ccccc2)nc2cc(-c3ccc(F)cc3)nn12 | 33.3 µM
62 | Cc1ccccc1[C@@]1(C)ON(c2ccccc2C(F)(F)F)C1=O | 7.04 µM
63 | CCOC(=O)c1c(C=O)c2sc(C)cc2n1C | 18 µM
64 | Cc1ccc2c(c1)COc1c3ccc(C(=O)NC(C)C)cc3nn1-2 | 24 µM
